From publication PMC9780888, “4-Isobutylmethcathinone—A Novel Synthetic Cathinone with High In Vitro Cytotoxicity and Strong Receptor Binding Preference of Enantiomers” (Pharmaceuticals, 2022)
Where a name gives a salt, the structure may show the parent alone.

Molecular target: T1, dopamine receptor DAR4 (Homo sapiens, UniProt P21917)
T1 construct: host or cells: HTLA (HEK 293-derived)
T1 sequence (P21917 1-419): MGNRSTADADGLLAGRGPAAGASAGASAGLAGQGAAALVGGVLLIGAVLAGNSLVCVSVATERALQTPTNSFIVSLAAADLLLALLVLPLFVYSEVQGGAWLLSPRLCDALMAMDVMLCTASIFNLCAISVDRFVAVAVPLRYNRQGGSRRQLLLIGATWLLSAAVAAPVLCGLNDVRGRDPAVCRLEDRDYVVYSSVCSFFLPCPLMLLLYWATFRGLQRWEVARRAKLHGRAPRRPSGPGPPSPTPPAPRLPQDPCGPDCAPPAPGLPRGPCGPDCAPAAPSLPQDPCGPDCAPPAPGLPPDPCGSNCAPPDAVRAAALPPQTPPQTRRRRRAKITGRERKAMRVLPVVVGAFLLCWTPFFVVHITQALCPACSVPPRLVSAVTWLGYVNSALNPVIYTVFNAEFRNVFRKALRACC
Assay: PRESTO-Tango β-arrestin 2 recruitment assay, DAR4
Assay type: cell-based
Details: DAR4, 0-500 nM
From the text: However, binding to a specific receptor/transporter and, thus, the mechanism of action of a given cathinone always depends on the specific structure of the evaluated compound [37]. In this study, the binding activity of IBMcat and its enantiomers was verified by PRESTO-Tango (parallel receptor expression and screening via transcriptional output, with transcriptional activation following arrestin-2 translocation) assay using the HTLA cell line stably producing β-arrestin-2 in a fusion with TEV and luciferase production driven by tTA. For this purpose, the HTLA cells were transiently transfected with plasmid DNA encoding the dopamine receptors type 1-4 (DAR1-4), which also contain the TEV protease cleavage site followed by tTA at the 3’-end (DAR1-Tango, DAR2-Tango, DAR3-Tango, DAR4-Tango). In the case of the receptor activation by a ligand, in transfected cells, the receptor is desensitized by β-arrestin fused to TEV protease. This brings the TEV protease close to the site that specifically cleaves and, thus, the transcription factor can be cleaved. The transcription factor then translocates to the cell nucleus, in which it triggers the transcription of the target gene for luciferase production which can be determined by the light emitted from luciferin conversion to oxyluciferin. Here, the pronounced luminescence was recorded for all DAR1-4 types in HTLA cells treated with IBMCat and its enantiomers (Figure 8).
The HTLA cell line was used for the PRESTO-Tango β-arrestin recruitment assay. […]
The transfected HTLA cells were incubated for 24 h, and then 1 × 10^4 cells were seeded per well of a white 96-well clear bottom plate (Brand, Germany) in 40 μL of DMEM with 1% charcoal-stripped FBS (Thermo Fisher Scientific, USA). […] After 5 min., the luminescence was measured using a multi-mode microplate reader SpectraMax iD5 (Molecular Devices, San Jose, CA, USA) measuring the entire wavelength spectrum. All samples were measured in quadruplicates. The data were evaluated by Prism 7 software (GraphPad, San Jose, CA, USA).

Compound | maximum increase in RLU compared to untreated control [fold]
CNC(C)C(=O)c1ccc(CC(C)C)cc1.Cl (stereo not drawn) [IBMcat, 4-isobutylmethcathinone hydrochloride] | 2
CN[C@H](C)C(=O)c1ccc(CC(C)C)cc1 [R-IBMCat] | 1.5
CN[C@@H](C)C(=O)c1ccc(CC(C)C)cc1 [S-IBMCat, (S)-4-isobutylmethcathinone hydrochloride] | 2
